The results in this text go back to US8524755B2 (priority 2009, dated 2013).

For one series, the target named is T1, Endothelin ETA (h) (Homo sapiens, UniProt P25101).
T1 construct: expressed in transfected cells; host or cells: CHO cells
T1 sequence (P25101 21-427): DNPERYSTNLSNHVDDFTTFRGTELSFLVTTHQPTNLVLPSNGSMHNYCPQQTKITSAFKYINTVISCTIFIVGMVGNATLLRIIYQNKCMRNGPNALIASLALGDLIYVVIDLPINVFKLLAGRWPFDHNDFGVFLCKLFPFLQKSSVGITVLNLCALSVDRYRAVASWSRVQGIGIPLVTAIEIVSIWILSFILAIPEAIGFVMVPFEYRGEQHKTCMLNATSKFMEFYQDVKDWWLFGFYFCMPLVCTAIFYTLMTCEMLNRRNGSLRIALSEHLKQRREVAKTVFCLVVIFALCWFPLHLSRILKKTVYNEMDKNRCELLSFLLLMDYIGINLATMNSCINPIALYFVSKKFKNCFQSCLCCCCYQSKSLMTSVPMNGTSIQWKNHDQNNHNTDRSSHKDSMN
The experiment in a line: Binding ETA (h) (ag). Particulars: read-out: % Inhibition of Control Specific Binding @ 10 μM. The protocol: (§1) Radioligand binding assay methods utilized to measure the activity of compounds of the invention will be familiar to those skilled in the art. In each assay case, the assay components such as, for example, the cell-type, ligand, reference compound and the like, will be familiar to practitioners of such an assay.
(§2) Analysis and Expression of Results: Compounds of the invention were tested in the biochemical assays and percent inhibition of specific binding was determined. The specific ligand binding to the receptors is defined as the difference between the total binding and the nonspecific binding determined in the presence of an excess of unlabelled ligand. The results are expressed as a percent inhibition of control specific binding (100−((measured specific binding/control specific binding)×100)) obtained in the presence of test compounds.

A short description of series [1]: Quantification of RD162′ metabolites in human plasma. Particulars: for Concentrations in Patients' Plasma Expressed as a Percentage of the Concentration of RD162′, Average / Concentrations in Patients' Plasma Expressed as a Percentage of the Concentration of RD162′, Maximum / Concentrations in Patients' Plasma Expressed as a Percentage of the Concentration of RD162′, Minimum: 18 patients; for Concentrations in Patients' Plasma Expressed as a Percentage of the Concentration of RD162′, Minimum: RD162′ 150 to 480 mg per day, approx. three months; for concentration in the plasma (in words): plasma of 18 prostate cancer patients on RD162′. The format is in vivo. The protocol: The method used to derive the above data was as follows. Electrospray LC/MS/MS Assay of RD162′ Metabolites ((MI), (MII), (MIII)):
Plasma Extraction Procedures for Concentration Determinations: A human plasma sample (50 μL) was added to a 10-mL glass tube. A 10-μL volume of IS stock solution was added to the tube, followed by addition of 1 M phosphate buffer at pH 3.0 (400 μL). The mixture was vortexed and […] (5 mL) was added. The tube was vortexed for 30 sec and then centrifuged at 4540 g for 10 min. The solvent was transferred to a glass tube and dried under air flow at 35-40° C. The sample was reconstituted with 100 μL of methanol: 0.1% formic acid in water (7:3) vortexed for 30 sec, and sonicated for 5 min. The sample was transferred to an HPLC sample vial and centrifuged at 4540 g for 5 min. A 20-μL volume was then injected onto an LC/MS/MS system for assay.
HP1100 LC Pump Initial Conditions: HPLC Column: ACE C18, 5 μM, 150×2.1 mm id. Solvents: A % 40.0; B % 60.0; C % 0.0; D % 0.0; Valve A set to channel 1; Valve B set to channel 1. Flow: 0.300 mL/min; Stop Time: 9.0 min; MM. Pressure: 0 bar; Max. Pressure: 300 bar; Oven Temperature Left: 30.0° C.; Oven Temperature Right: 30.0° C.
LC/MS/MS Parameters for RD162′ Metabolite (MI)
Instrument Parameters—Function 1: Polarity ES-; Data type: MRM data; Function type: MRM of 5 channels.
HPLC Column: ACE C18, 5 μM, 150×2.1 mm id; HP1100 LC Pump mode: Isocratic; Isocratic solvent conditions: A % 25.0; B % 75.0; C % 0.0; D % 0.0; Valve A set to channel 1; Valve B set to channel 1; Flow: 0.300 mL/min; Stop Time: 4.5 min; Min. Pressure: 0 bar; Max. Pressure: 300 bar: Oven Temperature Left: 30.0° C.; Oven Temperature Right: 30.0° C.

The target in the next series is T2, CysLT1 (LTD4) (h) (Homo sapiens, UniProt Q9Y271).
T2 construct: expressed in transfected cells; host or cells: CHO cells
T2 sequence (Q9Y271 1-337): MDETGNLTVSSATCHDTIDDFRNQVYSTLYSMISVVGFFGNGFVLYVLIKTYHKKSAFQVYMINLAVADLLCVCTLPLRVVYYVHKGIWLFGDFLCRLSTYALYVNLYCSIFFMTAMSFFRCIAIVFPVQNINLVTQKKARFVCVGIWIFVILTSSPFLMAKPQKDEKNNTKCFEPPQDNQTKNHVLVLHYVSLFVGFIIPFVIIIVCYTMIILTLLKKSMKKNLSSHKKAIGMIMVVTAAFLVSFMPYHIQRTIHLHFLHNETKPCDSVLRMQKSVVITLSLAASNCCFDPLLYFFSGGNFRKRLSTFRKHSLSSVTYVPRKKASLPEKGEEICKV
In words: Binding CysLT1 (LTD4) (ag). The settings on record: read-out: % Inhibition of Control Specific Binding @ 10 μM. The protocol:
as §1, §2

For the next series, the target named is T3, NOP (ORL1) (h) (Homo sapiens, UniProt P41146).
T3 construct: expressed in transfected cells; host or cells: HEK-293 cells
T3 sequence (P41146 whole entry): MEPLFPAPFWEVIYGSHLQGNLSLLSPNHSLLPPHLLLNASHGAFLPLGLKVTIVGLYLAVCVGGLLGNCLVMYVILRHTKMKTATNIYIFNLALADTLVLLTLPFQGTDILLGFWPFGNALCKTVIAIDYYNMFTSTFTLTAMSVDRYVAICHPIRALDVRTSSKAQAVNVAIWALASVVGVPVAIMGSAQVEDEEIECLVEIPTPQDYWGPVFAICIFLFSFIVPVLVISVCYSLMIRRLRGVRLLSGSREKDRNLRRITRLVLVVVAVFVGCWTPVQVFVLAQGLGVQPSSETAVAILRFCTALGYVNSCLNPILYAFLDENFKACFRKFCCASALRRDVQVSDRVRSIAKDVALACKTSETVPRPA
In words: Binding NOP (ORL1) (h) (ag). Particulars: read-out: % Inhibition of Control Specific Binding @ 10 μM. The protocol: as §1, §2

For a further series, the system named is P2Y. The experiment in a line: Binding P2Y (ag). On the set-up: species or system rat. The protocol: as §1, §2
The next series has as its target T4, PDE1B (h) (Homo sapiens, UniProt Q01064).
T4 construct: host or cells: Sf9 cells
The experiment in a line: Enzyme assay PDE1B (h). The class given is biochemical. The settings on record: read-out: % Inhibition of Control Values @ 10 μM. From the text:
The enzyme assays provided below will be familiar to those skilled in the art.
Analysis and Expression of Results: The results are expressed as a percent of control specific activity ((measured specific activity/control specific activity)×100) obtained in the presence of the test compounds.

As a reminder, the inhibition is the change of the read-out against control, counted positive when it falls.

T4 sequence (Q01064 whole entry): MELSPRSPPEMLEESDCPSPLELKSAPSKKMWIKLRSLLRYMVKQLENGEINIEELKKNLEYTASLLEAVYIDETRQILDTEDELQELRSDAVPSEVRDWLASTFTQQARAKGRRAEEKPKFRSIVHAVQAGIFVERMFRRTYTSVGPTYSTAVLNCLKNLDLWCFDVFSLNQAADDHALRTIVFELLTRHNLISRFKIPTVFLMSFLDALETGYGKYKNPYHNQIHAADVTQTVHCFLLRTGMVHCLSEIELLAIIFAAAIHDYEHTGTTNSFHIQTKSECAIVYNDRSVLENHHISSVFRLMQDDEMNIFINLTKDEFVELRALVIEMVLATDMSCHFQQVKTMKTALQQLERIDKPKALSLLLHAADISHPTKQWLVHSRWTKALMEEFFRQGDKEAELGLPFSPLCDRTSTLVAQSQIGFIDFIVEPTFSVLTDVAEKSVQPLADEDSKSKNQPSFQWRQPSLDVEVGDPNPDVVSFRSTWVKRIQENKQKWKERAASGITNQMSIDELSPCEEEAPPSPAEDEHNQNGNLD

For the compound `CC1(C)C(=O)N(c2ccc(C#N)c(C(F)(F)F)c2)C(=S)N1c1ccc(C(=O)O)c(F)c1` [(MI), 4-(3-(4-cyano-3-(trifluoromethyl)phenyl)-5,5-dimethyl-4-oxo-2-thioxoimidazolidin-1-yl)-2-fluorobenzoic acid], the inhibition at 10 µM at Endothelin ETA (h) was -21%; on CysLT1 (LTD4) (h), 3%; on NOP (ORL1) (h), -10%; at PDE1B (h), 0%. Further, the “Concentrations in Patients' Plasma Expressed as a Percentage of the Concentration of RD162′, Average” value in series [1] stood at 60%. Besides, the “Concentrations in Patients' Plasma Expressed as a Percentage of the Concentration of RD162′, Maximum” value in series [1] is reported as 259%. Moreover, in series [1], the “Concentrations in Patients' Plasma Expressed as a Percentage of the Concentration of RD162′, Minimum” value is reported as 16%. Further, the “concentration in the plasma (in words)” value in series [1] is listed as “high concentrations”. Besides, the “% Inhibition of Control Specific Binding @ 10 μM” value (“% Inhibition” below) in the series with P2Y is recorded as −19%.

Consider `CC1(C)C(=O)N(c2ccc(C#N)c(C(F)(F)F)c2)C(=S)N1c1ccc(C(N)=O)c(F)c1` [(MII), 4-(3-(4-Cyano-3-(trifluoromethyl)phenyl)-5,5-dimethyl-4-oxo-2-thioxoimidazolidin-1-yl)-2-fluorobenzamide], for which the inhibition at 10 µM on Endothelin ETA (h) was -16%. In series [1], the “Concentrations in Patients' Plasma Expressed as a Percentage of the Concentration of RD162′, Average” value was determined as 112%; the “Concentrations in Patients' Plasma Expressed as a Percentage of the Concentration of RD162′, Maximum” value is 204%; the “Concentrations in Patients' Plasma Expressed as a Percentage of the Concentration of RD162′, Minimum” value is reported as 49%; the “concentration in the plasma (in words)” value is reported as “high concentrations”. Moreover, on CysLT1 (LTD4) (h), the inhibition at 10 µM was determined as 18%. Moreover, the inhibition at 10 µM at NOP (ORL1) (h) is -4%. The “% Inhibition” value in the series with P2Y is listed as −2%. In addition, on PDE1B (h), the inhibition at 10 µM was -11%.

As for `CC1(C)C(=O)N(c2ccc(C#N)c(C(F)(F)F)c2)C(=O)N1c1ccc(C(N)=O)c(F)c1` [(MIII), 4-(3-(4-cyano-3-(trifluoromethyl)phenyl)-5,5-dimethyl-2,4-dioxoimidazolidin-1-yl)-2-fluorobenzamide], the inhibition at 10 µM is -12% on Endothelin ETA (h), 11% on CysLT1 (LTD4) (h), 0% on NOP (ORL1) (h) and -8% at PDE1B (h). The “Concentrations in Patients' Plasma Expressed as a Percentage of the Concentration of RD162′, Average” value in series [1] turned out to be 4%. Further, in series [1], the “Concentrations in Patients' Plasma Expressed as a Percentage of the Concentration of RD162′, Maximum” value is given as 14%. In addition, the “Concentrations in Patients' Plasma Expressed as a Percentage of the Concentration of RD162′, Minimum” value in series [1] turned out to be 1%. The “concentration in the plasma (in words)” value in series [1] is reported as “low concentrations”. The “% Inhibition” value with P2Y is reported as −1%.

Take `CNC(=O)c1ccc(N2C(=O)N(c3ccc(C#N)c(C(F)(F)F)c3)C(=O)C2(C)C)cc1F` [(MIV), 4-(3-(4-cyano-3-(trifluoromethyl)phenyl)-5,5-dimethyl-2,4-dioxoimidazolidin-1-yl)-2-fluoro-N-methylbenzamide]: the inhibition at 10 µM at Endothelin ETA (h) is -27%; on CysLT1 (LTD4) (h), 11%; at NOP (ORL1) (h), -2%; at PDE1B (h) it was -2%. Moreover, the “% Inhibition” value in the series on P2Y is 0%.
